In US7671068B2, “N-(alkoxyalkyl) carbamoyl-substituted 6-phenyl-benzonaphthyridine derivatives and their use as PDE ¾ inhibitors” (NYCOMED GmbH, priority 2004, dated 2010):

Columns and labels:
Assay type in all cases: biochemical
PDE3A1 = biological target: T1, PDE3A1 (Homo sapiens, UniProt Q14432); assay: PDE3A1 inhibition, Method B (modified SPA test, recombinant enzyme); details: 0.5 μM cAMP, read-out: PDE3 [−log IC50, mol/l] (converted)
T1 construct: The whole ORF was subcloned into pBacPak9 (Clontech, Palo Alto) using EcoRI; made in house; host or cells: baculovirus (pBacPak9), SF21 insect cells (virus made in SF9); 1000xg supernatant of the homogenate
Source text: The cDNA for PDE3A1 (GB no. U36798) was isolated in 2 steps using PCR. A 3′ terminal cDNA fragment of PDE3A1 was amplified from fat cells cDNA (Clontech, Palo Alto) using primers OZ 458 (5′-[…]-3′) and OZ 457 (5′-[…]-3′). The 5′ terminal cDNA fragment of PDE3A1 was amplified from Placenta cDNA (Clontech, Palo Alto) using primers OZ 455 (5′-[…]-3′) and OZ 456 (5′-[…]-3′). The PCR products were cloned into pCR2.1-Topo (Invitrogen, Groningen, NL) under standard conditions (the manufacturer's instructions). The 3′ fragment was cut out with HindII and cloned into the HindII site of the construct carrying the 5′ fragment. The whole ORF was subcloned into pBacPak9 (Clontech, Palo Alto) using EcoRI. Aminoacid 12 is Aspartic Acid like in sequence GB no. AJ005036, aa 69 and aa 110 are respective Serine and Glycine like in both sequences GB no. AJ005036 and GB no. M91667.
(§1) The recombinant baculovirus was prepared by means of homologous recombination in SF9 insect cells. The expression plasmids were cotransfected with Bac-N-Blue (Invitrogen, Groningen, NL) or Baculo-Gold DNA (Pharmingen, Hamburg) using a standard protocol (Pharmingen, Hamburg). Wt virus-free recombinant virus supernatants were selected using plaque assay methods. After that, high-titre virus supernatants were prepared by amplifying 3 times. PDEs were expressed in SF21 cells by infecting 2×10^6 cells/ml with an MOI (multiplicity of infection) between 1 and 10 in serum-free SF900 medium (Life Technologies, Paisley, UK). The cells were cultured at 28° C. for 48-72 hours, after which they were pelleted for 5-10 min at 1000 g and 4° C.
(§2) The SF21 insect cells were resuspended, at a concentration of approx. 10^7 cells/ml, in ice-cold (4° C.) homogenization buffer (20 mM Tris, pH 8.2, containing the following additions: 140 mM NaCl, 3.8 mM KCl, 1 mM EGTA, 1 mM MgCl2, 10 mM β-mercaptoethanol, 2 mM benzamidine, 0.4 mM Pefablock, 10 μM leupeptin, 10 μM pepstatin A, 5 μM trypsin inhibitor) and disrupted by ultrasonication. The homogenate was then centrifuged for 10 min at 1000×g and the supernatant was stored at −80° C. until subsequent use (see below). The protein content was determined by the Bradford method (BioRad, Munich) using BSA as the standard.
PDE3A1 and PDE4B2 activities were inhibited by the said compounds in a modified SPA (scintillation proximity assay) test, supplied by Amersham Biosciences (see procedural instructions “phosphodiesterase [3H]cAMP SPA enzyme assay, code TRKQ 7090”), carried out in 96-well microtitre plates (MTP's). The test volume is 100 μl and contains 20 mM Tris buffer (pH 7.4), 0.1 mg of BSA (bovine serum albumin)/ml, 5 mM Mg^2+, 0.5 μM cAMP (including about 50,000 cpm of [3H]cAMP), 1 μl of the respective substance dilution in DMSO and sufficient recombinant PDE (1000×g supernatant, see above) to ensure that 10-20% of the cAMP is converted under the said experimental conditions. […] After the beads have been sedimented (>30 min), the MTP's are analyzed in commercially available luminescence detection devices. The corresponding IC50 values of the compounds for the inhibition of PDE activities are determined from the concentration-effect curves by means of non-linear regression.
(§3) The inhibitory values of the compounds 1-16 and 22-24 have been determined according to Method A. The inhibitory values of the compounds 17-21 have been determined according to Method B.

PDE4B2 = biological target: T2, PDE4B2 (Homo sapiens, UniProt Q07343); assay: PDE4B2 inhibition, Method B (modified SPA test, recombinant enzyme); details: 0.5 μM cAMP, read-out: PDE4 [−log IC50, mol/l] (converted)
T2 construct: made in house; host or cells: baculovirus, SF21 insect cells (virus made in SF9); 1000xg supernatant of the homogenate
Procedure: The PDE4B2 (GB no. M97515) was a gift of Prof. M. Conti (Stanford University, USA). It was amplified from the original plasmid (pCMV5) via PCR with primers Rb9 (5′-[…]-3′) and Rb10 (5′-[…]-3′) and cloned into the pCR-Bac vector (Invitrogen, Groningen, NL).
as §1, §2
PDE3A1 and PDE4B2 activities were inhibited by the said compounds in a modified SPA (scintillation proximity assay) test, supplied by Amersham Biosciences (see procedural instructions “phosphodiesterase [3H]cAMP SPA enzyme assay, code TRKQ 7090”), carried out in 96-well microtitre plates (MTP's). The test volume is 100 μl and contains 20 mM Tris buffer (pH 7.4), 0.1 mg of BSA (bovine serum albumin)/ml, 5 mM Mg^2+, 0.5 μM cAMP (including about 50,000 cpm of [3H]cAMP), 1 μl of the respective substance dilution in DMSO and sufficient recombinant PDE (1000×g supernatant, see above) to ensure that 10-20% of the cAMP is converted under the said experimental conditions. […] After a preincubation of 5 min at 37° C., the reaction is started by adding the substrate (cAMP) and the assays are incubated for a further 15 min; after that, they are stopped by adding SPA beads (50 μl). In accordance with the manufacturer's instructions, the SPA beads had previously been resuspended in water, but were then diluted 1:3 (v/v) in water; the diluted solution also contains 3 mM IBMX to ensure a complete PDE activity stop. After the beads have been sedimented (>30 min), the MTP's are analyzed in commercially available luminescence detection devices. The corresponding IC50 values of the compounds for the inhibition of PDE activities are determined from the concentration-effect curves by means of non-linear regression.
as §3

[1] = biological target: T3, PDE3 (cGMP-inhibited) in homogenates of human platelets (Homo sapiens, UniProt Q14432); assay: PDE3 inhibition, Method A (radioactive PDE assay after Thompson et al.); details: read-out: PDE3 [−log IC50, mol/l] (converted)
T3 construct: investigated in homogenates of human platelets; from tissue; host or cells: homogenates of human platelets
Procedure: (§4) The PDE activity was determined according to Thompson et al. (Adv Cycl Nucl Res 10: 69-92, 1979) with some modifications (Bauer and Schwabe, Naunyn-Schmiedeberg's Arch Pharmacol 311: 193-198, 1980). The test samples contained 20 mM Tris (pH 7.4), 5 mM MgCl2, 0.5 μM CAMP or cGMP, [^3H]cAMP or [^3H]cGMP (about 30 000 cpm/sample), the PDE isoenzyme-specific additives described in greater detail below, the indicated concentrations of inhibitor and an aliquot of the enzyme solution in a total sample volume of 200 μl. Dilution series of the compounds according to the invention were prepared in DMSO and further diluted in the samples [1:100 (v/v)], to give the desired end concentration of the inhibitors at a DMSO concentration of 1% (v/v), which for its part has only a minute effect on PDE activity.
(§5) After preincubation at 37° C. for 5 minutes, the reaction was started by addition of the substrate (CAMP or cGMP). The samples were incubated at 37° C. for a further 15 min. The reaction was terminated by addition of 50 μl 0.2 N HCl. After cooling on ice for 10 minutes and addition of 25 μg 5′-nucleotidase (snake venom from Crotalus atrox), the mixture was again incubated at 37° C. for 10 min and the samples were then applied to QAE Sephadex A-25 columns (sample volume 1 ml). The columns were eluted with 2 ml of 30 mM ammonium formate (pH 6.0). The radioactivity of the eluate was measured and corrected by the corresponding blank values (measured in the presence of denatured protein); the blank values were less than 5% of the total radioactivity. In no case did the proportion of hydrolyzed nucleotide exceed 30% of the original substrate concentration.
PDE3 (cGMP-inhibited) was investigated in homogenates of human platelets (see Schudt et al., Biochem Pharmacol 1991: 42, 153-162) using CAMP or cGMP as substrate.
(§6) The IC50 values were determined from the concentration-inhibition curves by nonlinear regression.
as §3

[2] = tested on: PDE4 (cAMP-specific) in the cytosol of human polymorphonuclear leukocytes (PMNL); assay: PDE4 inhibition, Method A (radioactive PDE assay after Thompson et al.); details: cAMP substrate, motapizone 1 μM
Procedure: as §4, §5
PDE4 (cAMP-specific) was investigated in the cytosol of human polymorphonuclear leukocytes (PMNL) [isolated from leukocyte concentrates, see Schudt et al., Arch Pharmacol 1991: 344, 682-690] using cAMP as substrate. The PDE3 inhibitor motapizone (1 μM) was used to suppress the PDE3 activity emanating from contaminated platelets.
as §6, §3

T2 sequence (Q07343 1-564 isoform Q07343-2): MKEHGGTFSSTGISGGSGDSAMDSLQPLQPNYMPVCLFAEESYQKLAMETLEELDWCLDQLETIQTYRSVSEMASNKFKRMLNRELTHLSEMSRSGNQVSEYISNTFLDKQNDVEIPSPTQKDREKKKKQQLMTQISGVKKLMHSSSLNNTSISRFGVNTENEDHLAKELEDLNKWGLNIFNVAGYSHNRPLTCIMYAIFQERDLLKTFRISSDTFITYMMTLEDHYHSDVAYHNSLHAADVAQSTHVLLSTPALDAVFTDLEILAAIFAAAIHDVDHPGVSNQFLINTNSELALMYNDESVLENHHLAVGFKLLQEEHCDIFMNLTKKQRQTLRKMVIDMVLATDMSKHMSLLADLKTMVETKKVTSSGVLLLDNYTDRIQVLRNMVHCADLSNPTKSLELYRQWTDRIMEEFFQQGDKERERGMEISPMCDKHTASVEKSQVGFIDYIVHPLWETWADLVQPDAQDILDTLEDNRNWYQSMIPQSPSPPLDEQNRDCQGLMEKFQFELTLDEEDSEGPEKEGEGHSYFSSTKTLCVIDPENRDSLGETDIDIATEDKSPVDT
T1 sequence (Q14432 whole entry): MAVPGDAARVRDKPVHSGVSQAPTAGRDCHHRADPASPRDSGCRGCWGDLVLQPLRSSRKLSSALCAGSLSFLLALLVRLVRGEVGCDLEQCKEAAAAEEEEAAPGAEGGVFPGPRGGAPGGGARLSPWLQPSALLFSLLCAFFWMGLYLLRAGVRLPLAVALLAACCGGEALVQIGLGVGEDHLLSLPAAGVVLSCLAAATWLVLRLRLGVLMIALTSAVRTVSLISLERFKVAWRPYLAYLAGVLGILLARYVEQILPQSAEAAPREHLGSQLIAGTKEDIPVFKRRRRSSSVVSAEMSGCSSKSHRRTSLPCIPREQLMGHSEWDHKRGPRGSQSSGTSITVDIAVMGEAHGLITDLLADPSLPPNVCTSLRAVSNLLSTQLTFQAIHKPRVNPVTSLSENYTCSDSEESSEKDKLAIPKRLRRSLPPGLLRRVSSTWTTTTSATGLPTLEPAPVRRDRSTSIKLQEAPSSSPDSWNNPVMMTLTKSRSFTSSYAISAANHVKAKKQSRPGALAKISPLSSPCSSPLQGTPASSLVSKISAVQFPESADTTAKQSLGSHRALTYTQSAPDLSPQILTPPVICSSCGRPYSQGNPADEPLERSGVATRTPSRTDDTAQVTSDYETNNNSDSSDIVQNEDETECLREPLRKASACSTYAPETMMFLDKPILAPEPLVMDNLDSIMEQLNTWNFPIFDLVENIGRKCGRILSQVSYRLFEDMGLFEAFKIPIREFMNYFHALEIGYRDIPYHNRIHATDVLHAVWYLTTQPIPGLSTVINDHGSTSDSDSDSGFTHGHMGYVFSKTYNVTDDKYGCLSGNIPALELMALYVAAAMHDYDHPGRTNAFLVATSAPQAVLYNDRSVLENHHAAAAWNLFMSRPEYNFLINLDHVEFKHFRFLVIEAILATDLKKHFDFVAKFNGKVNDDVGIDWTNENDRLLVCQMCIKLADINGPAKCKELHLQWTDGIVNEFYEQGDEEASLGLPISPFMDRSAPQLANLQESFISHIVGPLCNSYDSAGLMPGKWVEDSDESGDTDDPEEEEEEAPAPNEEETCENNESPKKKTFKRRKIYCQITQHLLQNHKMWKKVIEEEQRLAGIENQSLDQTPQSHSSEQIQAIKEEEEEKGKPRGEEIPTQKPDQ
T3 sequence (Q14432 whole entry): as above

CCOc1cc2c(cc1OC)C(c1ccc(C(=O)N(C(C)C)[C@@H](C)COCc3ccc(C(F)(F)F)cc3)cc1)=N[C@@H]1CCN(C)C[C@H]21 [Compound 18, 4-((4aR,10bS)-9-Ethoxy-8-methoxy-2-methyl-1,2,3,4,4a,10b-hexahydro-benzo [c][1,6]naphthyridin-6-yl)-N-isopropyl-N—[(S)-1-methyl-2-(4-trifluoromethyl-benzyloxy)-ethyl]-benzamide] was tested, and the IC50 (PDE3A1) was 0.0794 µM and the IC50 (PDE4B2) was 0.001 µM.
In the case of CCOc1cc2c(cc1OC)C(c1ccc(C(=O)N(C(C)C)[C@@H](C)COCc3ccc(C#N)cc3)cc1)=N[C@@H]1CCN(C)C[C@H]21 [Compound 19, N—[(S)-2-(4-Cyano-benzyloxy)-1-methyl-ethyl]-4-((4aR,10bS)-9-ethoxy-8-methoxy-2-methyl-1,2,3,4,4a,10b-hexahydro-benzo[c][1,6]naphthyridin-6-yl)-N-isopropyl-benzamide], the IC50 (PDE3A1) is reported as 0.0251 µM and the IC50 (PDE4B2) is reported as 0.000398 µM.
With CCOc1cc2c(cc1OC)C(c1ccc(C(=O)N(C(C)C)[C@@H](C)COCc3cc(OC)cc(OC)c3)cc1)=N[C@@H]1CCN(C)C[C@H]21 [Compound 17, N—[(S)-2-(3,5-Dimethoxy-benzyloxy)-1-methyl-ethyl]-4-((4aR,10bS)-9-ethoxy-8-methoxy-2-methyl-1,2,3,4,4a,10b-hexahydro-benzo[c][1,6]naphthyridin-6-yl)-N-isopropyl-benzamide] the IC50 (PDE3A1) was 0.0398 µM and the IC50 (PDE4B2) was 0.000316 µM.
With CCOc1cc2c(cc1OC)C(c1ccc(C(=O)N(C(C)C)[C@@H](C)COCCCc3ccccc3)cc1)=N[C@@H]1CCN(C)C[C@H]21 [Compound 21, 4-((4aR,10bS)-9-Ethoxy-8-methoxy-2-methyl-1,2,3,4,4a,10b-hexahydro-benzo [c][1,6]naphthyridin-6-yl)-N-isopropyl-N—[(S)-1-methyl-2-(3-phenyl-propoxy)-ethyl]-benzamide] the IC50 (PDE3A1) was 0.0398 µM and the IC50 (PDE4B2) was 0.002 µM.
With CCOc1cc2c(cc1OC)C(c1ccc(C(=O)N(C)[C@H](COCc3ccccc3)CC(C)C)cc1)=N[C@@H]1CCN(C)C[C@H]21 [Compound 22, N—((S)-1-Benzyloxymethyl-3-methyl-butyl)-4-((4aR,10bS)-9-ethoxy-8-methoxy-2-methyl-1,2,3,4,4a,10b-hexahydro-benzo[c][1,6]naphthyridin-6-yl)-N-methyl-benzamide] the IC50 [1] was 0.0631 µM and the “PDE4 [−log IC50, mol/l]” value [2] was 9.4 mol/l.
With CCOCCCNC(=O)c1ccc(C2=N[C@@H]3CCN(C)C[C@@H]3c3cc(OCC)c(OC)cc32)cc1.Cl [Compound 4, 4-((4aR,10bS)-9-Ethoxy-8-methoxy-2-methyl-1,2,3,4,4a,10b-hexahydro-benzo [c][1,6]naphthyridin-6-yl)-N-(3-ethoxy-propyl)-benzamide; hydrochloride] the IC50 [1] was 0.794 µM and the “PDE4 [−log IC50, mol/l]” value [2] was 8.4 mol/l.
Compound CCOc1cc2c(cc1OC)C(c1ccc(C(=O)N(C(C)C)[C@@H](C)COCc3ccc(OC)cc3)cc1)=N[C@@H]1CCN(C)C[C@H]21 [Compound 20, 4-((4aR,10bS)-9-Ethoxy-8-methoxy-2-methyl-1,2,3,4,4a,10b-hexahydro-benzo [c][1,6]naphthyridin-6-yl)-N-isopropyl-N—[(S)-2-(4-methoxy-benzyloxy)-1-methyl-ethyl]-benzamide] has an IC50 (PDE3A1) of 0.0398 µM and an IC50 (PDE4B2) of 0.000316 µM.
